≈ marks a conversion by molar mass, not a printed value.
Columns and labels:
Type in all cases: functional
Staphylococcus aureus [1] = assay: Antibacterial activity against methicillin-resistant Staphylococcus aureus assessed growth inhibition by micro broth dilution method
Staphylococcus aureus [2] = assay: Antibacterial activity against Staphylococcus aureus assessed growth inhibition by micro broth dilution method
Staphylococcus aureus [3] = assay: Antibacterial activity against Staphylococcus aureus ATCC 25923 assessed growth inhibition by micro broth dilution method
Staphylococcus aureus [4] = assay: Antibacterial activity against Staphylococcus aureus ATCC 29213 assessed growth inhibition by micro broth dilution method
Enterococcus faecalis = assay: Antibacterial activity against Enterococcus faecalis assessed growth inhibition by micro broth dilution method
Klebsiella pneumoniae = assay: Antibacterial activity against Klebsiella pneumonia assessed growth inhibition by micro broth dilution method
Escherichia coli [5] = assay: Antibacterial activity against Escherichia coli assessed growth inhibition by micro broth dilution method
Escherichia coli [6] = assay: Antibacterial activity against Escherichia coli ATCC 25922 assessed growth inhibition by micro broth dilution method
Pseudomonas aeruginosa [7] = assay: Antibacterial activity against Pseudomonas aeruginosa assessed growth inhibition by micro broth dilution method
Pseudomonas aeruginosa [8] = assay: Antibacterial activity against Pseudomonas aeruginosa ATCC 27853 assessed growth inhibition by micro broth dilution method
Acinetobacter baumannii = assay: Antibacterial activity against Acinetobacter baumannii assessed growth inhibition by micro broth dilution method

Row | SMILES | MIC (Staphylococcus aureus [1]) [µg/mL] | MIC (Staphylococcus aureus [2]) [µg/mL] | MIC (Staphylococcus aureus [3]) [µg/mL] | MIC (Staphylococcus aureus [4]) [µg/mL] | MIC (Enterococcus faecalis) [µg/mL] | MIC (Klebsiella pneumoniae) [µg/mL] | MIC (Escherichia coli [5]) [µg/mL] | MIC (Escherichia coli [6]) [µg/mL] | MIC (Pseudomonas aeruginosa [7]) [µg/mL] | MIC (Pseudomonas aeruginosa [8]) [µg/mL] | MIC (Acinetobacter baumannii) [µg/mL]
1 | CCCn1cc(C(=O)OCC)c(=O)c2cc(F)c([C-](C#N)C(=O)OCC)cc21.[Na+] (stereo not drawn) | 64 | 128 | 2 | 16 | 16 | 16 | 16 | 4 | 8 | 8 | 16
2 | CCCCCCn1cc(C(=O)OCC)c(=O)c2cc(F)c(F)cc21 | 256 (≈ 759 µM) | 8 (≈ 23.7 µM) | 128 (≈ 379 µM) | 128 (≈ 379 µM) | 64 (≈ 190 µM) | 64 (≈ 190 µM) | 8 (≈ 23.7 µM) | 64 (≈ 190 µM) | 64 (≈ 190 µM) | 256 (≈ 759 µM) | 64 (≈ 190 µM)
3 | CCOC(=O)c1cn(CCN2CCOCC2)c2cc(F)c(F)cc2c1=O | 256 (≈ 699 µM) | 64 (≈ 175 µM) | 256 (≈ 699 µM) | 256 (≈ 699 µM) | 128 (≈ 349 µM) | 256 (≈ 699 µM) | 2 (≈ 5.46 µM) | 128 (≈ 349 µM) | 128 (≈ 349 µM) | 128 (≈ 349 µM) | 2 (≈ 5.46 µM)
4 | CCOC(=O)c1cn(Cc2ccc(Cl)cc2)c2cc(F)c(F)cc2c1=O | 256 (≈ 678 µM) | 64 (≈ 169 µM) | 256 (≈ 678 µM) | 256 (≈ 678 µM) | 64 (≈ 169 µM) | 32 (≈ 84.7 µM) | 1 (≈ 2.65 µM) | 128 (≈ 339 µM) | 256 (≈ 678 µM) | 256 (≈ 678 µM) | 4 (≈ 10.6 µM)
5 | CCOC(=O)c1cn(CC(=O)N2CCCCC2)c2cc([C-](C#N)C(=O)OCC)c(F)cc2c1=O.[Na+] (stereo not drawn) | 32 | 256 | 64 | 8 | 64 | 256 | 32 | 64 | 128 | 16 | 16
6 | CCOC(=O)c1cn(CC2CCCCC2)c2cc(F)c(F)cc2c1=O | 128 (≈ 366 µM) | 16 (≈ 45.8 µM) | 2 (≈ 5.72 µM) | 64 (≈ 183 µM) | 128 (≈ 366 µM) | 8 (≈ 22.9 µM) | 4 (≈ 11.4 µM) | 128 (≈ 366 µM) | 64 (≈ 183 µM) | 256 (≈ 733 µM) | 256 (≈ 733 µM)
7 | CCOC(=O)c1cn(CC)c2cc(F)c(F)cc2c1=O | 256 (≈ 910 µM) | 32 (≈ 114 µM) | 256 (≈ 910 µM) | 128 (≈ 455 µM) | 128 (≈ 455 µM) | 64 (≈ 228 µM) | 16 (≈ 56.9 µM) | 64 (≈ 228 µM) | 64 (≈ 228 µM) | 256 (≈ 910 µM) | 256 (≈ 910 µM)
8 | C#CCn1cc(C(=O)OCC)c(=O)c2cc(F)c(F)cc21 | 128 (≈ 439 µM) | 128 (≈ 439 µM) | 256 (≈ 879 µM) | 128 (≈ 439 µM) | 128 (≈ 439 µM) | 128 (≈ 439 µM) | 4 (≈ 13.7 µM) | 64 (≈ 220 µM) | 16 (≈ 54.9 µM) | 256 (≈ 879 µM) | 256 (≈ 879 µM)

— ChEMBL document CHEMBL5528028, “Discovery of benzopyridone cyanoacetates as new type of potential broad-spectrum antibacterial candidates” (Eur J Med Chem, 2024)
